Patent US10611751B2, “Dopamine D1 receptor positive allosteric modulators” (Eli Lilly and Company, priority 2018, dated 2020)
Like-named read-outs stand apart in the source and are kept apart here.

How the values were obtained:
[1] = Plasma and Brain Levels after oral dosing; assay type: in vivo; settings: fed
Description: Example 1 is orally dosed to male mouse from 1 mg/kg to 30 mg/kg in fed condition, and the plasma and brain concentration are determined 1.5 hr post-dose. The fraction unbound of the compound is determined in vitro as described previously (Zamek-Gliszczynski M J, Ruterbories K J, Ajamie R T, Wickremsinhe E R, Pothuri L, Rao M V, Basavanakatti V N, Pinjari J, Ramanathan V K, Chaudhary A K (2011) Validation of 96-well equilibrium dialysis with non-radiolabeled drug for definitive measurement of protein binding and application to clinical development of highly-bound drugs. J Pharm Sci 100: 2498-2507). The ratio (Kpuu) of unbound brain concentration (Cu,brain) vs. unbound plasma concertation (Cu,plasma) is determined as described previously (Raub T J, Wishart G N, Kulanthaivel P, Staton B A, Ajamie R T, Sawada G A, Gelbert L M, Shannon H E, Sanchez-Martinez C, De Dios A (2015) Brain Exposure of Two Selective Dual CDK4 and CDK6 Inhibitors and the Antitumor Activity of CDK4 and CDK6 Inhibition in Combination with Temozolomide in an Intracranial Glioblastoma Xenograft. Drug Metab Dispos. 43:1360-71). The data presented below for Example 1 are averages from 3 animals at each dose. “Con.” refers to concentration. […]

normal rats = assay: In vivo tolerability in normal rats; settings: broad dose range
Text: Compounds of the invention, for instance Example 1, show an advantageous combination of pharmacological properties, such as potentiation of human D1 receptor signaling in response to dopamine, high oral in vivo availabilty, in vivo efficacy in locomotor activation of animals that are habituated to the environment, and a favorable toxicity profile in preclinical testing. […].

[2] = 3 mg/kg oral, male mouse, 1.5 hr
[3] = 3 mg/kg oral, male mouse, 1.5 hr, read-out: Brain con.
[4] = 3 mg/kg oral, male mouse, 1.5 hr, read-out: Cu, brain
[5] = 3 mg/kg oral, male mouse, 1.5 hr, read-out: Cu, plasma
[6] = 10 mg/kg oral, male mouse, 1.5 hr
[7] = 10 mg/kg oral, male mouse, 1.5 hr, read-out: Brain con.
[8] = 10 mg/kg oral, male mouse, 1.5 hr, read-out: Cu, brain
[9] = 10 mg/kg oral, male mouse, 1.5 hr, read-out: Cu, plasma
[10] = 30 mg/kg oral, male mouse, 1.5 hr
[11] = 30 mg/kg oral, male mouse, 1.5 hr, read-out: Brain con.
[12] = 30 mg/kg oral, male mouse, 1.5 hr, read-out: Cu, brain
[13] = 30 mg/kg oral, male mouse, 1.5 hr, read-out: Cu, plasma
[14] = brain/plasma, 3 mg/kg oral, male mouse, 1.5 hr, read-out: Kpuu (Cu,brain vs. Cu,plasma)
[15] = brain/plasma, 10 mg/kg oral, male mouse, 1.5 hr, read-out: Kpuu (Cu,brain vs. Cu,plasma)
[16] = brain/plasma, 30 mg/kg oral, male mouse, 1.5 hr, read-out: Kpuu (Cu,brain vs. Cu,plasma)

Compound	Plasma con. [1, 2]	concentration at 1 h [1, 3]	concentration at 1 h [1, 4]	concentration at 1 h [1, 5]	Plasma con. [1, 6]	concentration at 1 h [1, 7]	concentration at 1 h [1, 8]	concentration at 1 h [1, 9]	Plasma con. [1, 10]	concentration at 1 h [1, 11]	concentration at 1 h [1, 12]	concentration at 1 h [1, 13]	Kp uu [1, 14]	Kp uu [1, 15]	Kp uu [1, 16]	also measured
C[C@H]1c2cccc(-c3cnn(C)c3)c2C[C@H](CO)N1C(=O)Cc1c(Cl)cccc1Cl [Example 1, 2-(2,6-dichlorophenyl)-1-((1S,3R)-3-(hydroxymethyl)-1-methyl-5-(1-methyl-1H-pyrazol-4-yl)-3,4-dihydroisoquinolin-2(1H)-yl)ethan-1-one]	86.6 nM	60 nM	1.5 nM	2.34 nM	120 nM	57.6 nM	1.44 nM	3.23 nM	1660 nM	794 nM	19.9 nM	44.9 nM	1.06	0.44	0.65	Cu, brain ([1]; 1 mg/kg oral, male mouse, 1.5 hr): BQL; Brain con. ([1]; 1 mg/kg oral, male mouse, 1.5 hr, BQL = below 1 ng/mg tissue): BQL; Kp uu at 1.5 h ([1]; brain/plasma, 6 mg/kg oral, male mouse, read-out: Kpuu (Cu,brain vs. Cu,plasma)): 0.65; concentration at 1.5 h ([1]; male, mouse, brain, oral, 6 mg/kg, 6 mg/kg oral, read-out: Brain con.): 129 nM; concentration at 1.5 h ([1]; male, mouse, brain, oral, 6 mg/kg, 6 mg/kg oral, read-out: Cu, brain): 3.22 nM; concentration at 1.5 h ([1]; male, mouse, plasma, oral, 1 mg/kg, 1 mg/kg oral, read-out: Cu, plasma): 0.182 nM; concentration at 1.5 h ([1]; male, mouse, plasma, oral, 1 mg/kg, 1 mg/kg oral, read-out: Plasma con.): 6.74 nM; concentration at 1.5 h ([1]; male, mouse, plasma, oral, 6 mg/kg, 6 mg/kg oral, read-out: Cu, plasma): 4.67 nM; concentration at 1.5 h ([1]; male, mouse, plasma, oral, 6 mg/kg, 6 mg/kg oral, read-out: Plasma con.): 173 nM; Tolerability / toxicity in vivo (in words) (normal rats): generally well tolerated
C[C@H]1c2cccc(-c3cn[nH]c3)c2C[C@H](CO)N1C(=O)Cc1c(Cl)cccc1Cl [Example 8, 2-(2,6-dichlorophenyl)-1-((1S,3R)-3-(hydroxymethyl)-1-methyl-5-(1H-pyrazol-4-yl)-3,4-dihydroisoquinolin-2(1H)-yl)ethan-1-one]	87.4 nM	66.3 nM	0.66 nM	2.71 nM	901 nM	267 nM	2.67 nM	27.9 nM	10321 nM	2391 nM	23.9 nM	320 nM	0.24	0.1	0.07	Kp uu at 1 h ([1]; brain/plasma, 20 mg/kg oral, male mouse, 1.5 hr, read-out: Kpuu (Cu,brain vs. Cu,plasma)): 0.1; Kp uu at 1 h ([1]; brain/plasma, 60 mg/kg oral, male mouse, 1.5 hr, read-out: Kpuu (Cu,brain vs. Cu,plasma)): 0.08; concentration at 1 h ([1]; male, mouse, brain, oral, 20 mg/kg, 20 mg/kg oral, 1.5 hr, read-out: Brain con.): 721 nM; concentration at 1 h ([1]; male, mouse, brain, oral, 20 mg/kg, 20 mg/kg oral, 1.5 hr, read-out: Cu, brain): 7.21 nM; concentration at 1 h ([1]; male, mouse, brain, oral, 60 mg/kg, 60 mg/kg oral, 1.5 hr, read-out: Brain con.): 5000 nM; concentration at 1 h ([1]; male, mouse, brain, oral, 60 mg/kg, 60 mg/kg oral, 1.5 hr, read-out: Cu, brain): 50 nM; concentration at 1 h ([1]; male, mouse, plasma, oral, 20 mg/kg, 20 mg/kg oral, 1.5 hr, read-out: Cu, plasma): 75.7 nM; concentration at 1 h ([1]; male, mouse, plasma, oral, 20 mg/kg, 20 mg/kg oral, 1.5 hr, read-out: Plasma con.): 2440 nM; concentration at 1 h ([1]; male, mouse, plasma, oral, 60 mg/kg, 60 mg/kg oral, 1.5 hr, read-out: Cu, plasma): 622 nM; concentration at 1 h ([1]; male, mouse, plasma, oral, 60 mg/kg, 60 mg/kg oral, 1.5 hr, read-out: Plasma con.): 20100 nM
